Measurements published in patent US20040009904A1, “APL immunoreactive peptides, conjugates thereof and methods of treatment for aPL antibody-mediated pathologies” (priority 1995, published 2004).
Bridge positions count the residues as written; N and C are the ends. Peptide text beside a SMILES is read from it.

Experiments:
ACA antibodies = test: Competitive binding peptide ACA ELISA, cardiolipin/β2-GPI-coated plates, panel of ACA antibodies (average); set-up: species or system human; settings: peptide 1 mg/mL, average over nine antibodies
Experimental: A variation of this assay uses microtitration plates coated with human β2-glycoprotein I/cardiolipin (β2-GPI/CL) instead of tetravalent peptide and tests the ability of monomeric peptides to block the binding of aPL antibody to the epitope(s) on β2-GPI/CL. In this assay, IgG-depleted human serum at an optimized concentration is used as a source of β2-GPI. The monomeric peptides at several concentrations are incubated with an optimized concentration of aPL antibody in a manner analogous to the assay which employs tetravalent peptide as a plate substrate. Following the incubation of aPL/peptide in (β2-GPI/CL) plates, antibody binding and the peptide concentration required for 50% inhibition is determined at half-maximal absorbance as in the tetravalent assay.
Peptide sequences for all five peptides immediately follow the table. All were tested using the competitive binding peptide ACA ELISA using CL/β2-GPI plates as described herein.
As noted in Section I above, one synthetic peptide, 6641/3G3 was tested against several high titer ACA antisera. This peptide appeared to be crossreactive with the vast majority of ACA antisera tested as illustrated in FIG. 14.
(B) Immulon I® 96-well, flat-bottom, polystyrene microtitration plates (Dynatech Laboratories, Inc., Chantilly, Va.) were coated with 30 μL/well of cardiolipin (CL, 50 μg; Sigma Chemical Co., St. Louis, Mo.) in ethanol. Two control wells received 30 μL ethanol only. After overnight evaporation at 4° C., each well was blocked with 200 μL of 5% (w/v) fish gelatin in PBS for 2 hours at RT.
The CL/β2-GPI microtitration plate was washed 5 times with TBS and 100 μL aliquots in duplicate from Eppendorf tubes #1, 2, 3, and 4 containing the antibody-peptide (or no peptide mixtures) were added to the wells. A volume of 100 μL from tube #4 was added to the duplicate control wells containing no cardiolipin. The microtitration plate was incubated for 1 hour at RT with agitation at 40 rpm in an orbital shaker (American Scientific, Rotator V), washed 5 times with TBS and then 100 μL of 1:1000 goat anti-human IgG alkaline phosphatase conjugate (Zymed, Cat No. 62-8422) in 0.5% (w/v) BSA-TBS was added. Following incubation for 1 hour at RT, the microtitration plate was again washed 5 times with TBS and the colorimetric enzyme detection developed by adding 100 μL of PMPP solution (7.8 g phenolphthalein monophosphate plus 69.5 g of 2-amino-2-methyl-1-propanol in 100 mL water stock solution diluted 1:26 with water). After 21 minutes, the reaction was stopped by adding 50 μL of 0.2 M Na2HPO4 (Mallinckrodt) to each well. Absorbance at 550 nm was read in a microplate reader (Bio-Tek Instruments, Model EL 311). The amount of peptide that inhibited ACA-6501 binding by 50%, the IC50, was calculated from the graph at the intersection of half-maximal absorbance with amount of peptide added.

ACA-6501 [1] = test: Competitive binding peptide ACA ELISA, cardiolipin/β2-GPI-coated plates; set-up: species or system human; settings: peptide 1 mg/mL, affinity purified antibody
Outline: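 Monomeric peptides at several amounts were preincubated ~1 h at RT with ACA-6501 serum (final 1:400), then added to cardiolipin-coated, fish-gelatin-blocked plates with β2-GPI for 1 h at RT. Bound IgG was detected with alkaline phosphatase anti-human IgG and phenolphthalein monophosphate, read at 550 nm. IC50 was the peptide amount at half-maximal absorbance.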

ACA-6501 [2] = test: Phage-ELISA; format: binding, human; settings: phage clones coated on wells, affACA-6501 2.5 μg/mL
Experimental: This method of selecting phage requires very tight binding of the insert to the screening antibody. Phage are directly coated onto wells of a microtitration plate and incubated with the screening antibody. Following washes to remove unbound antibody, an anti-human IgG alkaline phosphatase conjugate is added to bind any aPL antibodies bound to the phage. APL antibodies are then detected by adding a calorimetric substrate to the well which will react with alkaline phosphatase according to methods well known in the art.
Three mL cultures were prepared from 35 clones previously isolated with affinity purified ACA-6501 in several phage library screens as well as one fUSE 2 phage clone lacking a peptide insert which was used as a control. After centrifugation for 3 minutes at 17,000×g, 100 μL from each phage supernatant (adjusted to −2×10^11 particles/mL, based on absorbance) was added to microtitration plate wells (Falcon, Becton-Dickinson Labware, Lincoln Park, N.Y.) and allowed to incubate overnight at 4° C. Following four washes with TBS 7.4, the plate was blocked with 125 μL of 0.5% BSA/TBS for 1 hour at RT. After another four TBS washes, 100 μL of affACA-6501 previously diluted to 2.5 μg/mL in TBS/BSA was added to each well and allowed to incubate 1 hour at 37° C. Following an additional four washes, 100 μL anti-human IgG diluted 1:1000 in TBS/0.5% Tween was added to each well. After 1 hour at RT, enzyme substrate was added and the incubation allowed to proceed for 2 hours. Following the addition of 50 μL 0.2 M Na2HPO4 to stop the reaction, absorbance was measured at 550 nm in the automated plate absorbance reader. […] The sequences for these clones are showvn in Table 2.

CC(C)C[C@@H]1NC(=O)[C@H](CC(C)C)NC(=O)[C@H](CC(C)C)NC(=O)[C@@H](NC(=O)[C@@H]2CCCN2C(=O)CNC(=O)[C@H](C)N)CSSC[C@@H](C(=O)N2CCC[C@H]2C(=O)NCC(=O)O)NC(=O)[C@H](CCCNC(=N)N)NC(=O)[C@H](CC(=O)O)NC(=O)[C@@H]2CCCN2C(=O)[C@H](C)NC1=O [3B10, AGPCLLLAPDRCPG] (H-AGPCLLLAPDRCPG-OH; disulfide 4-12)
Percent Inhibition of AffACA by Peptide Monomers, Ave. (ACA antibodies): 65% | Percent Inhibition of AffACA by Peptide Monomers, 6501 (ACA-6501 [1]): 60% | signal in the phage-ELISA (ACA-6501 [2]): significant signals
